Test results reported in US5324724A (priority 1990, dated 1994).
Like-named read-outs stand apart in the source and are kept apart here.

What was measured:
[1] = molecular target: muscarinic receptors; assay: Displacement of muscarinic agonist 3H-Oxotremorine-M (3H-OXO-M) binding, cerebral cortex membranes; parameters: species or system Hooded Lister rats; settings: rat cerebral cortex; 2 nM 3H-OXO-M; 37° C., 30 min; E3 as hydrochloride salt, all others as oxalate salts
[2] = molecular target: muscarinic receptors; type: binding, Hooded Lister rats; settings: rat cerebral cortex; 0.27 nM 3H-QNB; 37° C., 30 min; E3 as hydrochloride salt, all others as oxalate salts

| Structure (SMILES) | IC50 [1] [nM] | IC50 [2] [nM] |
| --- | --- | --- |
| Nc1nncc(C2CN3CCC2C3)n1 (racemic) [E9a & E9b, (±) exo and endo 3-(3-Amino-1,2,4-triazin-5-yl) -1-azabicyclo[2.2.1]heptane] | 1.1 | 320 |
| Cc1nncc(C23CCCN(CC2)C3)n1 (racemic) [Example E1, (±) 5-(3-Methyl-l,2,4-triazin-5-yl)-1-azabicyclo[3.2.1]octane] | 33 | 1800 |
| Nc1nncc(C23CCCN(CC2)C3)n1 (racemic) [Example E2, (±) 5-(3-Amino-l,2,4-triazin-5-yl)-1-azabicyclo[3.2.1]octane] | 5 | 1110 |
| Nc1nncc(C2CN3CCC2CC3)n1 (racemic) [Example E6, (±)3-(3-Amino-1,2,4-triazin-5-yl)-1-azabicyclo[2.2.2]octane] | 11 | 2370 |
| Cc1nncc(C2CN3CCC2CC3)n1 (racemic) [Example E7, (±) 3-(3-Methyl-1,2,4-triazin-5-yl)-1-azabicyclo[2.2.2]octane] | 3.3 | 175 |
| Cc1nncc([C@@H]2CN3CC[C@@H]2C3)n1 (relative stereo) [Example E8a, 3-(3-Methyl-1,2,4-triazin-5-yl) -1-azabicyclo[2.2.1]heptane] | 3.1 | 255 |
| CCc1nncc([C@@H]2CN3CC[C@@H]2C3)n1 (relative stereo) [Example E10, (±) exo and endo 3-(3-Ethyl-1,2,4-triazin-5-yl) -1-azabicyclo[2.2.1]heptane] | 68 | 240 |
| Cc1nncc(C23CCN(CC2)C3)n1 [Example E3, 4-(3-Methyl-1,2,4-triazin-5-yl)-1-azabicyclo[2.2.1]heptane] | 70 | 4400 |
| Nc1nncc(C23CCN(CC2)C3)n1 [Example E4, 4-(3-Amino-1,2,4-triazin-5-yl)-1-azabicyclo[2.2.1]heptane] | 4 | 1490 |
| COc1nncc(C23CCN(CC2)C3)n1 [Example E5, 4-(3-Methoxy-1,2,4-triazin-5-yl)-1-azabicyclo[2.2.1]heptane] | 1100 | 14000 |
